According to PMC3557573 (Cancer chemotherapy and pharmacology, 2012):
Values joined by “and” are separate entries in the source; they are usually repeats but may differ in a detail not shown here. Identical values can stand only once. Like-named read-outs stand apart in the source and are kept apart here.

Tests used:
CFPAC-1 xenografts = experiment: Efficacy study in mice bearing CFPAC-1 xenografts; format: in vivo, C.B.-17 SCID mice
[1] = system: PC-3 human androgen independent prostate cancer cells; experiment: MTT assay, in vitro cytotoxicity; format: cell-based; settings: PC-3, 72 h
[2] = system: PANC-1 pancreatic cancer cells; experiment: MTT assay, in vitro cytotoxicity; format: cell-based, human; settings: PANC-1, 72 h
[3] = system: CFPAC-1 pancreatic cancer cells; experiment: MTT assay, in vitro cytotoxicity; format: cell-based, human; settings: CFPAC-1, 72 h
PC-3 xenografts = experiment: Efficacy study in mice bearing PC-3 xenografts; format: in vivo, C.B.-17 SCID mice; settings: 25 mg/kg/day iv qdx5, PC-3 xenografts
[4] = format: in vivo, C.B.-17 SCID mice
[5] = Partial mass balance of kb-NB142-70; format: in vivo, mouse; settings: 5 min
[6] = Plasma protein binding, Rapid Equilibrium Dialysis; format: in vitro ADME
[7] = β-glucuronidase treatment of urine; format: in vitro ADME, mice; settings: 0-6 h urine, 37 °C, 24 h, 10,000 units
all 3 PKD isoforms = settings: cited from earlier work
[8] = system: PC-3 human androgen-independent prostate cancer cells; settings: PC-3 ref 34; cited from earlier work
[9] = Urinary and fecal excretion; settings: for metabolite excreted in urine, % of dose: assuming equivalent UV absorption
[10] = cited from earlier work
[11] = system: PANC-1 pancreatic cancer xenograft; settings: po 80 mg/kg qd × 21 ref 31; cited from earlier work
[12] = day 6, 50 mg/kg q3dx3, CFPAC-1 xenografts

Nc1ccn([C@@H]2O[C@H](CO)[C@@H](O)C2(F)F)c(=O)n1 [gemcitabine]
tumor doubling time (CFPAC-1 xenografts; 50 mg/kg q3dx3, CFPAC-1 xenografts, control 2.2 days): 10.4 days | T/C of mean tumor volume (CFPAC-1 xenografts; [12]): 22% | mean tumor volume (CFPAC-1 xenografts; [12]): 335 mm^3

O=C1NCCSc2c1sc1ccc(O)cc21 [kb-NB142-70]
IC50 [1]: 21 ± 6 µM | IC50 [2]: 34 ± 7 µM | IC50 [3]: 5.2 ± 0.1 µM | effect on the growth of the tumor xenografts (PC-3 xenografts): no effect | toxicity or changes in body weights (PC-3 xenografts): did not result in any toxicity or changes in the body weights | AUC0→∞ Brain ([4]; 25 mg/kg iv): 85 nmol·min/g | AUC0→∞ Fat ([4]; 25 mg/kg iv): 1681 nmol·min/g | AUC0→∞ Heart ([4]; 25 mg/kg iv): 236 nmol·min/g | AUC0→∞ Kidney ([4]; 25 mg/kg iv): 1712 nmol·min/g | AUC0→∞ Liver ([4]; 25 mg/kg iv): 266 nmol·min/g | AUC0→∞ Lung ([4]; 25 mg/kg iv): 377 nmol·min/g | AUC0→∞ Plasma ([4]; 25 mg/kg iv): 409 nmol·min/mL | AUC0→∞ RBC ([4]; 25 mg/kg iv): 288 nmol·min/mL | AUC0→∞ Skeletal Muscle ([4]; 25 mg/kg iv): 748 nmol·min/g | AUC0→∞ Spleen ([4]; 25 mg/kg iv): 288 nmol·min/g | AUC0→∞ Tumor ([4]; 25 mg/kg iv): 731 nmol·min/g | AUC for plasma ([4]; 25 mg/kg iv): 409 nmol·min/mL | AUC for tumor ([4]; 25 mg/kg iv): 731 nmol·min/mg | AUC in fat ([4]; 25 mg/kg iv): 1681 nmol·min/g | clearance ([4]; 25 mg/kg iv): 243 mL/min/kg | plasma half-life ([4]; 25 mg/kg iv): 6 min | volume of distribution ([4]; 25 mg/kg iv): approximately 2744 mL/kg | kidney Cmax ([4]; 25 mg/kg iv, at 5 min): 63 nmol/g | lung Cmax ([4]; 25 mg/kg iv, at 5 min): 27 nmol/g | PC-3 xenograft (tumor) Cmax ([4]; 25 mg/kg iv, observed at 10 min): 11.8 nmol/g and 12 nmol/g | blood brain barrier crossing ([4]; 25 mg/kg iv, brain concentrations lower than plasma): appeared to cross the blood brain barrier | Brain concentration ([4]; 5 min after 25 mg/kg iv): 6.34 ± 1.72 nmol/g | Fat concentration ([4]; 5 min after 25 mg/kg iv): 9.92 ± 0.52 nmol/g | Heart concentration ([4]; 5 min after 25 mg/kg iv): 14.5 ± 2.0 nmol/g | Kidney concentration ([4]; 5 min after 25 mg/kg iv): 63.4 ± 13.7 nmol/g | Liver concentration ([4]; 5 min after 25 mg/kg iv): 23.4 ± 1.1 nmol/g | Lung concentration ([4]; 5 min after 25 mg/kg iv): 26.8 ± 3.3 nmol/g | Plasma concentration ([4]; 5 min after 25 mg/kg iv): 36.9 ± 8.3 µM | RBC concentration ([4]; 5 min after 25 mg/kg iv): 23.6 ± 1.7 nmol/mL | Skeletal Muscle concentration ([4]; 5 min after 25 mg/kg iv): 18.4 ± 4.6 nmol/g | Spleen concentration ([4]; 5 min after 25 mg/kg iv): 21.2 ± 3.8 nmol/g | Tumor concentration ([4]; 5 min after 25 mg/kg iv): 5.62 ± 1.63 nmol/g | Brain concentration ([4]; 10 min after 25 mg/kg iv): 5.07 ± 0.57 nmol/g | Fat concentration ([4]; 10 min after 25 mg/kg iv): 8.93 ± 1.71 nmol/g | Heart concentration ([4]; 10 min after 25 mg/kg iv): 13.1 ± 2.5 nmol/g | Kidney concentration ([4]; 10 min after 25 mg/kg iv): 48.9 ± 15.8 nmol/g | Liver concentration ([4]; 10 min after 25 mg/kg iv): 6.41 ± 0.56 nmol/g | Lung concentration ([4]; 10 min after 25 mg/kg iv): 16.7 ± 1.2 nmol/g | Plasma concentration ([4]; 10 min after 25 mg/kg iv): 23.4 ± 7.4 µM | RBC concentration ([4]; 10 min after 25 mg/kg iv): 13.2 ± 2.7 nmol/mL | Skeletal Muscle concentration ([4]; 10 min after 25 mg/kg iv): 15.5 ± 4.0 nmol/g | Spleen concentration ([4]; 10 min after 25 mg/kg iv): 12.6 ± 2.5 nmol/g | Tumor concentration ([4]; 10 min after 25 mg/kg iv): 11.8 ± 4.0 nmol/g | Brain concentration ([4]; 15 min after 25 mg/kg iv): 2.40 ± 0.40 nmol/g | Fat concentration ([4]; 15 min after 25 mg/kg iv): 6.65 ± 0.74 nmol/g | Heart concentration ([4]; 15 min after 25 mg/kg iv): 6.23 ± 1.96 nmol/g | Kidney concentration ([4]; 15 min after 25 mg/kg iv): 27.0 ± 12.4 nmol/g | Liver concentration ([4]; 15 min after 25 mg/kg iv): 8.41 ± 0.29 nmol/g | Lung concentration ([4]; 15 min after 25 mg/kg iv): 10.4 ± 4.9 nmol/g | Plasma concentration ([4]; 15 min after 25 mg/kg iv): 10.3 ± 3.7 µM | RBC concentration ([4]; 15 min after 25 mg/kg iv): 6.94 ± 2.26 nmol/mL | Skeletal Muscle concentration ([4]; 15 min after 25 mg/kg iv): 9.45 ± 2.47 nmol/g | Spleen concentration ([4]; 15 min after 25 mg/kg iv): 8.03 ± 3.39 nmol/g | Tumor concentration ([4]; 15 min after 25 mg/kg iv): 5.22 ± 3.60 nmol/g | Brain concentration ([4]; 30 min after 25 mg/kg iv): 0.84 ± 0.11 nmol/g | Fat concentration ([4]; 30 min after 25 mg/kg iv): 2.80 ± 0.45 nmol/g | Heart concentration ([4]; 30 min after 25 mg/kg iv): 2.60 ± 0.53 nmol/g | Kidney concentration ([4]; 30 min after 25 mg/kg iv): 10.1 ± 2.0 nmol/g | Lung concentration ([4]; 30 min after 25 mg/kg iv): 2.95 ± 1.69 nmol/g | Plasma concentration ([4]; 30 min after 25 mg/kg iv): 2.0 ± 1.9 µM | RBC concentration ([4]; 30 min after 25 mg/kg iv): 2.31 ± 1.70 nmol/mL | Skeletal Muscle concentration ([4]; 30 min after 25 mg/kg iv): 2.28 ± 0.56 nmol/g | Tumor concentration ([4]; 30 min after 25 mg/kg iv): 4.22 ± 1.92 nmol/g | Fat concentration ([4]; 60 min after 25 mg/kg iv): 2.62 ± 1.35 nmol/g | Kidney concentration ([4]; 60 min after 25 mg/kg iv): 2.87 ± 0.56 nmol/g | Skeletal Muscle concentration ([4]; 60 min after 25 mg/kg iv): 1.05 ± 0.02 nmol/g | Tumor concentration ([4]; 60 min after 25 mg/kg iv): 1.24 ± 0.95 nmol/g | Fat concentration ([4]; 120 min after 25 mg/kg iv): 0.77 ± 0.13 nmol/g | Kidney concentration ([4]; 120 min after 25 mg/kg iv): 3.76 ± 0.82 nmol/g | Skeletal Muscle concentration ([4]; 120 min after 25 mg/kg iv): 0.95 ± 0.01 nmol/g | Tumor concentration ([4]; 120 min after 25 mg/kg iv): 0.79 ± 0.32 nmol/g | Fat concentration ([4]; 240 min after 25 mg/kg iv): 0.45 ± 0.06 nmol/g | Kidney concentration ([4]; 240 min after 25 mg/kg iv): 1.78 ± 0.29 nmol/g | Skeletal Muscle concentration ([4]; 240 min after 25 mg/kg iv): 1.00 ± 0.01 nmol/g | Tumor concentration ([4]; 240 min after 25 mg/kg iv): 0.57 ± 0.60 nmol/g | Fat concentration ([4]; 360 min after 25 mg/kg iv): 0.36 ± 0.03 nmol/g | Skeletal Muscle concentration ([4]; 360 min after 25 mg/kg iv): 0.97 ± 0.06 nmol/g | Tumor concentration ([4]; 360 min after 25 mg/kg iv): 1.21 ± 0.78 nmol/g | Fat concentration ([4]; 960 min after 25 mg/kg iv): 0.85 ± 0.42 nmol/g | Fat concentration ([4]; 1440 min after 25 mg/kg iv): 0.44 ± 0.07 nmol/g | Cmax ([4]; read-out: Plasma Cmax, 25 mg/kg iv, observed at 5 min): 36.9 µM and 37 µM | administered dose detectable in plasma and collected tissues as parent compound [5]: 12.5% | total administered dose detectable in plasma and collected tissues ([5]; parent plus metabolite): 13.6 % of the dose | plasma protein bound ([6]; 0.3 μg/mL): 78% | plasma protein bound ([6]; 3 μg/mL): 78% | increase in parent on incubation of urine with β-glucuronidase [7]: ~ 410% | potency relative to CID755673 (all 3 PKD isoforms): ≥ 2 fold | EC50 [8]: 8 µM | urinary excretion of parent, % of dose ([9]; 0-6 h urine): 2.5% | metabolite excreted in urine, % of dose ([9]; 0-6 h urine): approximately 7.6% | urinary excretion of parent, % of dose ([9]; 6-24 h urine): 0.1% | metabolite excreted in urine, % of dose ([9]; 6-24 h urine): ~1.2% | fecal excretion, % of dose ([9]; mouse, in vivo): 0.67%

O=C1NCCCc2c1oc1ccc(O)cc21 [CID755673, reference compound]
IC50 (all 3 PKD isoforms; against all 3 PKD isoforms ref 33): 0.2 to 0.3 µM

COc1ncc2sc3c(c2n1)SCCNC3=O [kmg-NB4-23]
aqueous solubility [10]: poor

CC[C@@H](N)CNc1ccnc(-c2cc(-c3cnn(C)c3)ccc2O)n1.Cl.Cl [CRT0066101]
growth of PANC-1 xenograft [11]: slowed the growth
